Measured values from paper PMC9338265, “Pathogen-selective killing by guanylate-binding proteins as a molecular mechanism leading to inflammasome signaling” (Nature Communications, 2022).
Non-standard residues stand in square brackets, D forms with d. No end group written: not given here. *: point of attachment. FITC = O=C1OC2(c3ccc(O)cc3Oc3cc(O)ccc32)c2ccc(NC(=S)*)cc21; Ahx = NCCCCCC(=O)O

B1: mGBP1 (protein, UniProt Q01514 1-589, looked up)
Guanylate-binding protein 1: MASEIHMSEPMCLIENTEAQLVINQEALRILSAITQPVVVVAIVGLYRTGKSYLMNKLAGKRTGFSLGSTVQSHTKGIWMWCVPHPKKAGQTLVLLDTEGLEDVEKGDNQNDCWIFALAVLLSSTFIYNSIGTINQQAMDQLHYVTELTDLIKSKSSPDQSDVDNSANFVGFFPIFVWTLRDFSLDLEFDGESITPDEYLETSLALRKGTDENTKKFNMPRLCIRKFFPKRKCFIFDRPGDRKQLSKLEWIQEDQLNKEFVEQVAEFTSYIFSYSGVKTLSGGITVNGPRLKSLVQTYVSAICSGELPCMENAVLTLAQIENSAAVQKAITYYEEQMNQKIHMPTETLQELLDLHRTCEREAIEVFMKNSFKDVDQKFQEELGAQLEAKRDAFVKKNMDMSSAHCSDLLEGLFAHLEEEVKQGTFYKPGGYYLFLQRKQELEKKYIQTPGKGLQAEVMLRKYFESKEDLADTLLKMDQSLTEKEKQIEMERIKAEAAEAANRALAEMQKKHEMLMEQKEQSYQEHMKQLTEKMEQERKELMAEQQRIISLKLQEQERLLKQGFQNESLQLRQEIEKIKNMPPPRSCTIL

Assays:
F. novicida [1] = tested on: F. novicida
N. meningitidis [2] = test: Bacterial viability assay (CFU or O.D.); format: cell-based, Neisseria meningitidis; conditions: 6 h
[3] = tested on: human embryonic kidney cells HEK293; test: Cytotoxicity (SYTOX incorporation, LDH release); conditions: 10 µg/ml; IncuCyte live imaging; LDH after 24 h
primary mouse BMDMs = test: Cytotoxicity (SYTOX incorporation, LDH release); conditions: 10 µg/ml; IncuCyte live imaging; LDH after 24 h
F. novicida [4] = format: cell-based, Francisella novicida
[5] = tested on: African green monkey kidney cells Vero; test: Cytotoxicity (SYTOX incorporation, LDH release); conditions: 10 µg/ml; IncuCyte live imaging; LDH after 24 h
[6] = tested on: human intestinal epithelial cells HT29; test: Cytotoxicity (SYTOX incorporation, LDH release); conditions: 10 µg/ml; IncuCyte live imaging; LDH after 24 h
F. novicida [7] = format: cell-based, Francisella novicida; remark: listed apart in the source
E. coli [8] = test: Bacterial viability assay (CFU); format: cell-based, Escherichia coli; conditions: 6 h
N. meningitidis [9] = test: Peptide and protein binding assay with SYTOX staining; format: cell-based, Neisseria meningitidis; conditions: for Localization to and killing of N. meningitidis (SYTOX): 10 µg/mL FITC-peptide, 1 h or 6 h
E. coli [10] = test: as above; format: cell-based, Escherichia coli
F. novicida [11] = format: cell-based, Francisella novicida; remark: listed apart in the source
F. novicida [12] = format: binding, Francisella novicida
[13] = tested on: isogenic lpxA mutant of N. meningitidis, which lacks LOS; test: Bacterial viability assay (O.D.); format: cell-based, Neisseria meningitidis; conditions: mGBP1 protein at 0.4, 4 or 40 µM, 6 h; mutant lacking LOS

Row | Molecule | Viability of F. novicida (percentage of CFU in relation to solvent control) (F. novicida [1]) | Cytotoxicity, SYTOX incorporation or LDH release, HEK293 [3] | Cytotoxicity, SYTOX incorporation or LDH release, BMDMs (primary mouse BMDMs) | SYTOX positive F. novicida, flow cytometry plot (F. novicida [4]) | Cytotoxicity, SYTOX incorporation or LDH release, Vero [5] | Cytotoxicity, SYTOX incorporation or LDH release, HT29 [6] | further results
1 | FYHTGKSYLMNKLAGKQKGFSL [GBP1^46–67] | little or no antimicrobial activity |  |  |  |  |  | Viability of N. meningitidis (percentage of CFU in relation to solvent control) (N. meningitidis [2]; peptide at 10 µg/ml): little or no antimicrobial activity
2 | GTDENTKKFNMPRLCIRKFFPKRKCFIFDR [GBP1^209–238] | only GBP1^28–67 and WLBU2 exhibited | None of the peptides exhibited cytotoxicity | None of the peptides exhibited cytotoxicity | 9.2% | None of the peptides exhibited cytotoxicity | None of the peptides exhibited cytotoxicity | 
3 | IRILEQIAQPLVVVAIVGLYRTGKSYLMNRLAGRNHGFSL [GBP3^22–61] | bacterial killing in a dose-dependent manner |  |  |  |  |  | Morphology of F. novicida by SEM and TEM (F. novicida [7]): bacterial membrane damage and bacteriolysis of F. novicida
4 | LDILSAIQNPV [GBP1^28–38] | killed F. novicida and N. meningitidis similar to that observed for GBP1^28–67 |  |  |  |  |  | Viability of E. coli (percentage of CFU in relation to solvent control) (E. coli [8]; peptide at 10 µg/ml): unable to kill E. coli; Viability of N. meningitidis (percentage of CFU in relation to solvent control) (N. meningitidis [2]; peptide at 10 µg/ml): killed F. novicida and N. meningitidis similar to that observed for GBP1^28–67
5 | LDILSAIQNPVVVVAIVGFYHTGKSYLMNKLAGKQKGFSL [GBP1^28–67] |  | None of the peptides exhibited cytotoxicity | None of the peptides exhibited cytotoxicity |  | None of the peptides exhibited cytotoxicity | None of the peptides exhibited cytotoxicity | half maximal inhibitory concentration (IC50), viability of F. novicida (F. novicida [1]; 6 h): 5.04 µg/mL
6 | LLKQGFQNESLQLRQEIEKI [GBP1^558–577] | only GBP1^28–67 and WLBU2 exhibited | None of the peptides exhibited cytotoxicity | None of the peptides exhibited cytotoxicity | 4.7% | None of the peptides exhibited cytotoxicity | None of the peptides exhibited cytotoxicity | 
7 | RRWVRRVRRWVRRVVRVVRRWVRR [WLBU2, reference compound] | exhibited, in a dose-dependent manner, antibacterial activity |  |  | 90.7% |  |  | Viability of E. coli (percentage of CFU in relation to solvent control) (E. coli [8]; peptide at 0.1, 1 or 10 µg/ml): led to death of the bacteria; Morphology of F. novicida by SEM and TEM (F. novicida [7]): apoptosis-like blebbing and apoptosis-like bodies; Uptake of SYTOX by F. novicida, quantification by flow cytometry (F. novicida [4]): induced a significant uptake of SYTOX
8 | TFYKPGGYYLFLQRKQELEKKYIQTPGKG [GBP1^424–452] | only GBP1^28–67 and WLBU2 exhibited | None of the peptides exhibited cytotoxicity | None of the peptides exhibited cytotoxicity | 11.4% | None of the peptides exhibited cytotoxicity | None of the peptides exhibited cytotoxicity | 
9 | VVVVAIVGFYHTGKSYLMNKLAGKQKGFSL [GBP1^38–67] | little or no antimicrobial activity |  |  |  |  |  | Viability of N. meningitidis (percentage of CFU in relation to solvent control) (N. meningitidis [2]; peptide at 10 µg/ml): little or no antimicrobial activity
10 | {FITC}-[Ahx]KLIKLLDRLASRSVS [FITC-control peptide, reference compound] |  |  |  |  |  |  | Localization to and killing of N. meningitidis (SYTOX) (N. meningitidis [9]): this did not occur
11 | {FITC}-[Ahx]LDILSAIQNPVVVVAIVGFYHTGKSYLMNKLAGKQKGFSL [FITC-GBP1^28–67] |  |  |  |  |  |  | Localization to bacteria and uptake of SYTOX, E. coli (E. coli [10]; 10 µg/mL FITC-peptide, 1 h or 6 h): this did not occur with E. coli; Localization to bacteria and uptake of SYTOX, F. novicida (F. novicida [11]): localized to and induced uptake of SYTOX in F. novicida; Binding to F. novicida exposed to NaCl, saponin or sarcosyl before addition of peptide (F. novicida [12]): did not impair the binding; FITC signal remaining on F. novicida already bound to peptide after exposure to NaCl, saponin or sarcosyl (F. novicida [12]): loss of FITC signal; Localization to and killing of N. meningitidis (SYTOX) (N. meningitidis [9]): localized to and killed N. meningitidis
12 | B1 | killed F. novicida in a dose-dependent manner |  |  |  |  |  | Localization to bacteria and uptake of SYTOX, E. coli (E. coli [10]; 40 µM mGBP1 protein, 6 h): this did not occur with E. coli; Viability of N. meningitidis (percentage of CFU in relation to solvent control) (N. meningitidis [2]; mGBP1 protein at 0.4, 4 or 40 µM): killed N. meningitis in a dose-dependent manner; Viability of WT N. meningitidis (percentage of O.D. in relation to solvent control) (N. meningitidis [2]; mGBP1 protein at 0.4, 4 or 40 µM, WT strain): can kill both WT and ΔlpxA mutant strains; Localization to bacteria and uptake of SYTOX, F. novicida (F. novicida [11]): localized to and induced uptake of SYTOX in F. novicida; Viability of N. meningitidis ΔlpxA mutant (percentage of O.D. in relation to solvent control) [13]: can kill both WT and ΔlpxA mutant strains; Morphology of F. novicida by SEM (F. novicida [7]): disruption of the membrane integrity, membrane rupture, and expulsion of intracellular content; Localization to bacteria and uptake of SYTOX, N. meningitidis (N. meningitidis [9]; 40 µM mGBP1, 6 h): localized to N. meningitidis, resulting in the uptake of SYTOX
